Results from US7446199B2, “Compositions useful as inhibitors of protein kinases” (Vertex Pharmaceuticals Incorporated, priority 2003, dated 2008).

Key:
Type in all cases: biochemical
[1] = molecular target: c-Met (Homo sapiens, UniProt P08581); test: Ki determination for the inhibition of c-Met, coupled enzyme system; conditions: 200 μM ATP, 10 μM polyGluTyr, 80 nM c-Met, 30° C.
Method in brief: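 Coupled pyruvate kinase/lactate dehydrogenase NADH assay with 80 nM c-Met, 200 μM ATP, 10 μM polyGluTyr in pH 7.5 HEPES, 1.5% DMSO at 30° C. Compound (0.006–12.5 μM final, 12-point) preincubated 10 min; ATP started reaction, rates read over 10 min; Ki derived from rate versus inhibitor concentration.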

[2] = molecular target: GSK-3β, (AA 1-420) (Homo sapiens, UniProt P49841); test: GSK-3 inhibition assay, coupled enzyme system; conditions: 20 μM ATP, 300 μM peptide, 20 nM GSK-3b, 30° C.; read-out: Ki values (GSK3)
Method in brief: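 Pyruvate kinase/lactate dehydrogenase-coupled NADH assay with 20 nM enzyme, 20 μM ATP and 300 μM peptide in HEPES pH 7.5, 1.5% DMSO, 30° C. Compound (0.002–30 μM, 12-point) preincubated 10 min before ATP start; rates over 10 min gave Ki.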

[3] = molecular target: SYK (Homo sapiens, UniProt P43405); test: SYK enzyme assay, coupled enzyme assay; conditions: 200 μM ATP, 4 μM poly Gly-Tyr peptide, 30° C.
Procedure: Compounds were screened for their ability to inhibit SYK using a standard coupled enzyme assay (Fox et al., Protein Sci. 1998, 7, 2249). Reactions were carried out in 100 mM HEPES (pH 7.5), 10 mM MgCl2, 25 mM NaCl, 1 mM DTT and 1.5% DMSO. Final substrate concentrations in the assay were 200 μM ATP (Sigma chemical Co.) and 4 μM poly Gly-Tyr peptide (Sigma Chemical Co.). Assays were carried out at 30° C. and 200 nM SYK. Final concentrations of the components of the coupled enzyme system were 2.5 mM phosphoenolpyruvate, 300 μM NADH, 30 μg/ml pyruvate kinase and 10 μg/ml lactate dehydrogenase.
An assay stock buffer solution was prepared containing all of the reagents listed above, with the exception of SYK, DTT, and the test compound of interest of the present invention. 56 μl of the test reaction was placed in a 96 well plate followed by the addition of 1 μl of 2 mM DMSO stock containing the test compound of the present invnetion (final compound concentration 30 μM). The plate was pre-incubated for ˜10 minutes at 30° C. and the reaction initiated by the addition of 10 μl of enzyme (final concentration 25 nM). Rates of reaction were obtained using a BioRad Ultramark plate reader (Hercules, Calif.) over a 5 minute read time at 30° C., and Ki values for the compounds of the present invention were determined according to standard methods.

GSK-3β, (AA 1-420), sequence (P49841 whole entry, the tested form may be a part): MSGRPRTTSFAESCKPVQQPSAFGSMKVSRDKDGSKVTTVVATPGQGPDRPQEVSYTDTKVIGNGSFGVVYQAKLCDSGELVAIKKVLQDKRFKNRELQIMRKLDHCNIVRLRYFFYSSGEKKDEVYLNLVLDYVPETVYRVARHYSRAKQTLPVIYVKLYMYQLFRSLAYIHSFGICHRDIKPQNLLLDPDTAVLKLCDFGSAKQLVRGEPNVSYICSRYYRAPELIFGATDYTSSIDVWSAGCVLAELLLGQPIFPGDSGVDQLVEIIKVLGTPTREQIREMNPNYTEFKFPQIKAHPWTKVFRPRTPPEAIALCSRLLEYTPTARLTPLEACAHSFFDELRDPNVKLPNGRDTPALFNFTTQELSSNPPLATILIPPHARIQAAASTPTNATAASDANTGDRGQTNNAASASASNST
c-Met, sequence (P08581 25-1390): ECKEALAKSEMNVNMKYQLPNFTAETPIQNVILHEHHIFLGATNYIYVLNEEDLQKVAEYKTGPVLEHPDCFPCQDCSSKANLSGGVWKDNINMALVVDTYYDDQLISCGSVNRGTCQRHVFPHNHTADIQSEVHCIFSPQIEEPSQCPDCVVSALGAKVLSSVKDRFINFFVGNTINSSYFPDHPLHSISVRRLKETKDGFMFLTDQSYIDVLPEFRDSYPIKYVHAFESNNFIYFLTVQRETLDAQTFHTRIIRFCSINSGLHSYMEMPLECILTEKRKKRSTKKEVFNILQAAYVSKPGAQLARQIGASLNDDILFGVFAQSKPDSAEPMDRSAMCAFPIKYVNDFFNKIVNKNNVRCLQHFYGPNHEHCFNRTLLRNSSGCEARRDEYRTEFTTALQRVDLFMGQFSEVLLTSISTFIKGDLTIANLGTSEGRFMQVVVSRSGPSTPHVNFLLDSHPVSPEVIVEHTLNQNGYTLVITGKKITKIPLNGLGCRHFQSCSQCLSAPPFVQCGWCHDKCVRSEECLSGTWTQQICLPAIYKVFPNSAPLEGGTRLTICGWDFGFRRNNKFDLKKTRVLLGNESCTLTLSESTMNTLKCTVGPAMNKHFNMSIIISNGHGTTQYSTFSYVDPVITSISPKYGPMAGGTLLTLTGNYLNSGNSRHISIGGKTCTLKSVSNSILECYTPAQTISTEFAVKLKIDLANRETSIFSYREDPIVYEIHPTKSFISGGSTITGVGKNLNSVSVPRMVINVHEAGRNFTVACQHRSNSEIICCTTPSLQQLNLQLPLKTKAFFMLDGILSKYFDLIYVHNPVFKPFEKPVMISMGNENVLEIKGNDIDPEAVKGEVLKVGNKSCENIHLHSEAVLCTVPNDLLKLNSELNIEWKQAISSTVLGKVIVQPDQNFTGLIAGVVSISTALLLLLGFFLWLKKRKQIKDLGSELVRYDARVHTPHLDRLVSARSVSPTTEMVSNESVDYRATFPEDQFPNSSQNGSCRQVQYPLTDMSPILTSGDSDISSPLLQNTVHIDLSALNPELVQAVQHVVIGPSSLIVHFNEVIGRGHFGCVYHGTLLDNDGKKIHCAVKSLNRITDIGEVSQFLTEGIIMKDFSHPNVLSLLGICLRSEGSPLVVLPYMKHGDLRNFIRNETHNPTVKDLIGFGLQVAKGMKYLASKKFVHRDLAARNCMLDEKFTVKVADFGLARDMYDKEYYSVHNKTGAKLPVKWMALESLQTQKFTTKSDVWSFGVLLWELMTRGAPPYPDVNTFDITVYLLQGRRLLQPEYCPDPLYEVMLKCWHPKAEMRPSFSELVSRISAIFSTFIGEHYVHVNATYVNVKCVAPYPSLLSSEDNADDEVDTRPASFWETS

SMILES | Ki [1] [nM] | Ki [2] [nM] | Ki [3] [nM]
CN(C)c1cccc(-c2cnc3[nH]cc(-c4oncc4-c4cccc(F)c4F)c3c2)c1 [Compound 61, (3-{3-[4-(2,3-Difluoro-phenyl)-isoxazol-5-yl]-1H-pyrrolo[2,3-b]pyridin-5-yl}-phenyl)-dimethyl-amine] | < 200 | 200 to 1000 | 1000 to 12500
CC(=O)Nc1cccc(-c2cnc3[nH]cc(-c4oncc4-c4cccc(F)c4F)c3c2)c1 [Compound 65, N-(3-{3-[4-(2,3-Difluoro-phenyl)-isoxazol-5-yl]-1H-pyrrolo[2,3-b]pyridin-5-yl}-phenyl)-acetamide] | < 200 | 200 to 1000 | 1000 to 12500
O=c1ccc(-c2cnc3[nH]cc(-c4oncc4-c4cccc(F)c4F)c3c2)c[nH]1 [Compound 67, 5-{3-[4-(2,3-Difluoro-phenyl)-isoxazol-5-yl]-1H-pyrrolo [2,3-b]pyridin-5-yl}-1H-pyridin-2-one] | < 200 | < 200 | 200 to 1000
Fc1cccc(-c2cnoc2-c2c[nH]c3ncc(-c4ccc(N5CCNCC5)cc4)cc23)c1F [Compound 68, 3-[4-(2,3-Difluoro-phenyl)-isoxazol-5-yl]-5-(4-piperazin-1-yl-phenyl)-1H-pyrrolo[2,3-b]pyridine] | < 200 | < 200 | 200 to 1000
CN1CCN(c2ccc(-c3cnc4[nH]cc(-c5oncc5-c5cccc(F)c5F)c4c3)cc2)CC1 [Compound 70, 3-[4-(2,3-Difluoro-phenyl)-isoxazol-5-yl]-5-[4-(4-methyl-piperazin-1-yl)-phenyl]-1H-pyrrolo[2,3-b]pyridine methanesulfonate] | < 200 | < 200 | 200 to 1000
CN1CCN(c2ccc(-c3cnc4[nH]cc(-c5oncc5-c5cccc(F)c5F)c4c3)cn2)CC1 [Compound 71, 3-[4-(2,3-Difluoro-phenyl)-isoxazol-5-yl]-5-[6-(4-methyl-piperazin-1-yl)-pyridin-3-yl]-1H-pyrrolo[2,3-b]pyridine] | < 200 | 200 to 1000 | 1000 to 12500
Fc1cccc(-c2cnoc2-c2c[nH]c3ncc(-c4c[nH]cn4)cc23)c1F [Compound 76, 3-[4-(2,3-Difluoro-phenyl)-isoxazol-5-yl]-5-(3H-imidazol-4-yl)-1H-pyrrolo[2,3-b]pyridine] | < 200 | 200 to 1000 | 1000 to 12500
Fc1cccc(-c2cnoc2-c2c[nH]c3ncc(-c4cnc5[nH]ccc5c4)cc23)c1F [Compound 77, 3-[4-(2,3-Difluoro-phenyl)-isoxazol-5-yl]-1H,1′H-[5,5′]bi[pyrrolo[2,3-b]pyridinyl]] | < 200 | 200 to 1000 | 200 to 1000
CN(C)Cc1ccnc(-c2cnc3[nH]cc(-c4oncc4-c4cccc(F)c4F)c3c2)c1 [Compound 82, (2-{3-[4-(2,3-Difluoro-phenyl)-isoxazol-5-yl]-1H-pyrrolo[2,3-b]pyridin-5-yl}-pyridin-4-ylmethyl)-dimethyl-amine] | < 200 | < 200 | 1000 to 12500
CN(C)Cc1ccc(-c2cnc3[nH]cc(-c4oncc4-c4cccc(F)c4F)c3c2)nc1 [Compound 84, (6-{3-[4-(2,3-Difluoro-phenyl)-isoxazol-5-yl]-1H-pyrrolo[2,3-b]pyridin-5-yl}-pyridin-3-ylmethyl)-dimethyl-amine] | < 200 | 200 to 1000 | 1000 to 12500
Nc1cccc(-c2cnc3[nH]cc(-c4oncc4-c4cccc(F)c4F)c3c2)c1 [Compound 86, 3-{3-[4-(2,3-Difluoro-phenyl)-isoxazol-5-yl]-1H-pyrrolo [2,3-b]pyridin-5-yl}-phenylamine] | < 200 | < 200 | 200 to 1000
CN(C)c1ccc(-c2cnc3[nH]cc(-c4oncc4-c4cccc(F)c4F)c3c2)cc1 [Compound 88, (4-{3-[4-(2,3-Difluoro-phenyl)-isoxazol-5-yl]-1H-pyrrolo[2,3-b]pyridin-5-yl}-phenyl)-dimethyl-amine] | < 200 | 200 to 1000 | 1000 to 12500
Nc1ccc(-c2cnc3[nH]cc(-c4oncc4-c4cccc(F)c4F)c3c2)cc1 [Compound 90, 4-{3-[4-(2,3-Difluoro-phenyl)-isoxazol-5-yl]-1H-pyrrolo [2,3-b]pyridin-5-yl}-phenylamine] | < 200 | < 200 | 200 to 1000

Further lines, results first:

Ki [1] [nM] | Ki [2] [nM] | Ki [3] [nM] | SMILES
< 200 | 1000 to 12500 | 1000 to 12500 | CN(C)Cc1ccc(-c2cnc3[nH]cc(-c4oncc4-c4cccc(F)c4F)c3c2)cc1 [Compound 91, (4-{3-[4-(2,3-Difluoro-phenyl)-isoxazol-5-yl]-1H-pyrrolo[2,3-b]pyridin-5-yl}-benzyl)-dimethyl-amine]
< 200 | 200 to 1000 | 1000 to 12500 | Fc1cccc(-c2cnoc2-c2c[nH]c3ncc(-c4ccc(CN5CCCC5)cc4)cc23)c1F [Compound 93, 3-[4-(2,3-Difluoro-phenyl)-isoxazol-5-yl]-5-(4-pyrrolidin-1-ylmethyl-phenyl)-1H-pyrrolo[2,3-b]pyridine]
< 200 | < 200 | 1000 to 12500 | CS(=O)(=O)Nc1ccc(-c2cnc3[nH]cc(-c4oncc4-c4cccc(F)c4F)c3c2)cc1 [Compound 98, N-(4-{3-[4-(2,3-Difluoro-phenyl)-isoxazol-5-yl]-1H-pyrrolo[2,3-b]pyridin-5-yl}-phenyl)-methane sulfonamide]
< 200 | < 200 | 200 to 1000 | Clc1cccc(-c2cnoc2-c2c[nH]c3ncc(-c4cccnc4)cc23)c1Cl [Compound 99, 3-[4-(2,3-Dichloro-phenyl)-isoxazol-5-yl]-5-pyridin-3-yl-1H-pyrrolo[2,3-b]pyridine]
< 200 | < 200 | 1000 to 12500 | CN(C)c1ccc(-c2cnc3[nH]cc(-c4nncn4-c4cccc(F)c4F)c3c2)cc1 [Compound 106, (4-{3-[4-(2,3-Difluoro-phenyl)-4H-[1,2,4]triazol-3-yl]-1H-pyrrolo[2,3-b]pyridin-5-yl}-phenyl)-dimethyl-amine]
< 200 | < 200 | 1000 to 12500 | Fc1cccc(-c2cnoc2-c2c[nH]c3ncc(/C=C/n4cncn4)cc23)c1F [Compound 133, 3-[4-(2,3-Difluoro-phenyl)-isoxazol-5-yl]-5-(2-[1,2,4]triazol-1-yl-vinyl)-1H-pyrrolo[2,3-b]pyridine]
200 to 1000 | 200 to 1000 | 1000 to 12500 | Cc1noc(-c2c[nH]c3ncccc23)c1-c1cccc(F)c1F [Compound 134, 3-[4-(2,3-Difluoro-phenyl)-3-methyl-isoxazol-5-yl]-1H-pyrrolo[2,3-b]pyridine]
< 200 | < 200 | 200 to 1000 | Cc1noc(-c2c[nH]c3ncc(-c4ccc(N5CCN(C)CC5)cc4)cc23)c1-c1cccc(F)c1F [Compound 135, 3-[4-(2,3-Difluoro-phenyl)-3-methyl-isoxazol-5-yl]-5-[4-(4-methyl-piperazin-1-yl)-phenyl]-1H-pyrrolo[2,3-b]pyridine]
